Target: T1, Gag-Pol polyprotein [588-1027]/[588-1147] (Human immunodeficiency virus 1, UniProt P04585)
T1 construct: 588-1027; 588-1147
Assay: HIV-1 RT Assay
Conditions: pH 7.8; 37 °C
Source text: The IC50 of reverse transcriptase is the concentration that inhibits 50% of recombinant HIV-1 RT RNA-directed DNA polymerase activity in vitro.

Structure (SMILES)	IC50
O=C(CCNC(=S)Nc1ccc(Br)cn1)c1ccccc1 [3-(5-bromopyridin-2-yl)-1-(3-oxo-3-phenylpropyl)thiourea]	< 0.027 µM
O=C(CC/N=C(\S)Nc1ccc(Br)cn1)c1cc(F)ccc1F [3-(5-bromopyridin-2-yl)-1-[3-(2,5-difluorophenyl)-3-oxopropyl]thiourea]	< 0.025 µM
N#CN/C(=N\c1ccc(Cl)cn1)NCCc1ccccc1 [5-chloro-2-cyano-1-(2-phenylethyl)pyridine-2-guanidine]	> 10 µM
COc1ccccc1CCN=C(NC#N)Nc1nccs1 [2-cyano-3-[2-(2-methoxyphenyl)ethyl]-1-1,3-thiazol-2-ylguanidine]	> 10 µM
O=S(=O)(NCCc1ccccc1)Nc1ccc(Cl)cn1 [[(5-chloropyridin-2-yl)sulfamoyl](2-phenylethyl)amine]	> 10 µM
